Values of other authors, collected in patent publication US20080044496A1, “ARTHRITIS PHYTO-NUTRACEUTICAL SYNERGISTIC COMPOSITION” (priority 2006, published 2008).

System: human rheumatoid arthritis synoviocytes

C[C@@H]1CC[C@@]2(OC1)O[C@H]1C[C@H]3[C@@H]4CC=C5C[C@@H](O)CC[C@]5(C)[C@H]4CC[C@]3(C)[C@H]1[C@@H]2C [diosgenine]
apoptosis: induces apoptosis
